The values that follow are results of earlier work, collected in patent US20170333565A1, “TLR9 TARGETED CYTOTOXIC AGENTS” (H. LEE MOFFITT CANCER CENTER AND RESEARCH INSTITUTE, INC., priority 2014, published 2017).

The data set has as its system myelodysplastic syndromes (MDS). As to conditions: cited from earlier work.

Molecules are shown by their SMILES.

For the compound `Nc1cccc2c1CN(C1CCC(=O)NC1=O)C2=O` (centres unmarked) [LEN, lenalidomide], the clinical response entry (majority of patients with a chromosome 5q deletion (del5q)) is given as “sustained red blood cell transfusion independence”. Besides, the “median duration of response” value (patients with del5q MDS) is recorded as 2.5 years.
